The record followed here is publication PMC6696179, “Structural Optimization and Structure–Activity Relationship of 4-Thiazolidinone Derivatives as Novel Inhibitors of Human Dihydroorotate Dehydrogenase” (Molecules, 2019).

Bounds are passed on as bounds.

One series concerns the target T1, hDHODH (Homo sapiens, UniProt Q02127).
T1 construct: The plasmid pET-19b–hDHODH (Met30-Arg396) was transformed; inferred from the pET-19b vector and from purification on a chelating column with imidazole elution) (N); made in house; host or cells: E. coli BL21 (DE3)
Description: hDHODH enzyme inhibition assay (DCIP/UQ0, dihydroorotate-initiated).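 On all read-outs here: recombinant hDHODH (Met30–Arg396) in HEPES pH 8.0 buffer with KCl and Triton X-100, reaction started by 500 µM dihydroorotate, inhibition from rate with inhibitor relative to uninhibited rate.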 Type of series: biochemical. The conditions noted are these: for inhibition at 10 µM: compound at 10 µM, 10 nM purified hDHODH; for IC50: three independent tests, determined if inhibition at 10 μM was greater than 50%.

T1 sequence (Q02127 29-395 limits assumed): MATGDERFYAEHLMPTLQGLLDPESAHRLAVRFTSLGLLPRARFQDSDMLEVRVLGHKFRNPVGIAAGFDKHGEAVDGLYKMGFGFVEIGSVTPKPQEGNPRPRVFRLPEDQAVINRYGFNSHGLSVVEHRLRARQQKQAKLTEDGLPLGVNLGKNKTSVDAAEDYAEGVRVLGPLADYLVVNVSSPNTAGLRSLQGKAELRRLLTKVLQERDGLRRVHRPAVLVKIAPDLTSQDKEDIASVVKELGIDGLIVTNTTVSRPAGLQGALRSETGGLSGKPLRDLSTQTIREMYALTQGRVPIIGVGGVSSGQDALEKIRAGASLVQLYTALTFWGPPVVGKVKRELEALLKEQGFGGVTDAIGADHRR
Description for hDHODH: The purified hDHODH was diluted into a final concentration of 10 nM with the assay buffer contained 50 mM HEPES pH 8.0, 150 mM KCl, 0.1% Triton X-100. […] The dihydroorotate was added to a final concentration of 500 μM to initiate the reaction. […] Inhibition rate was calculated from (1-Vi/V0) × 100. For the determination of the IC50 values, eight to nine different concentrations were applied. Each inhibitor concentration point was tested in triplicate. IC50 values were calculated using the sigmoidal fitting option of the program Origin 8.0.

With `COC(=O)/C(C#N)=C1\SCC(=O)N1c1ccc(-c2ccccc2)cc1F` [Compound 10, Methyl (Z)-2-cyano-2-(3-(3-fluoro-[1,1’-biphenyl]-4-yl)-4-oxothiazolidin-2-ylidene)acetate], on hDHODH, the inhibition at 10 µM came to 58.8% and the IC50 turned out to be 3.52 µM.
Compound `COC(=O)/C(C#N)=C1\SCC(=O)N1c1ccc(C(=O)Nc2ccc(Cl)cc2)cc1` [Compound 32, Methyl (Z)-2-(3-(4-((4-chlorophenyl)carbamoyl)phenyl)-4-oxothiazolidin-2-ylidene)-2-cyanoacetate] came in with a melting point of 280.1 to 280.9 °C. At hDHODH, 10 µM produced 52.7% inhibition and it took 7.5 µM to reach half-maximal inhibition (IC50).
As to `COC(=O)/C(C#N)=C1\SCC(=O)N1c1ccc(C(=O)Nc2ccc(F)c(C#N)c2)cc1` [Compound 31, Methyl (Z)-2-cyano-2-(3-(4-((3-cyano-4-fluorophenyl)carbamoyl)phenyl)-4-oxothiazolidin-2-ylidene)acetate], the melting point lay in the range of 264.2 to 265.1 °C. Also, at hDHODH, the inhibition at 10 µM came out at 53.6% and inhibition was half-maximal at 8.56 µM (IC50).
For `COC(=O)/C(C#N)=C1\SCC(=O)N1c1ccc(C(=O)Nc2ccc(C(C)(C)C)cc2)cc1` [Compound 37, Methyl (Z)-2-(3-(4-((4-(tert-butyl)phenyl)carbamoyl)phenyl)-4-oxothiazolidin-2-ylidene)-2-cyanoacetate], in that order: 256.1 to 257 °C, 75.6% and 1.45 µM.
For `COC(=O)/C(C#N)=C1\SCC(=O)N1c1ccc(C(=O)Nc2ccccc2C(=O)O)cc1` [Compound 40, (Z)-2-(4-(2-(1-Cyano-2-methoxy-2-oxoethylidene)-4-oxothiazolidin-3-yl)benzamido)benzoic acid], in that order: 261.8 to 262.5 °C, 34.5% and more than 10 µM.
At hDHODH, `COC(=O)/C(C#N)=C1\SCC(=O)N1c1ccc(-c2ccccc2)cc1` [Compound 9, Methyl (Z)-2-(3-([1,1’-biphenyl]-4-yl)-4-oxothiazolidin-2-ylidene)-2-cyanoacetate] registered an inhibition at 10 µM of 73.8% and a 50% inhibitory concentration (IC50) of 1.32 µM.
Regarding `COC(=O)/C(C#N)=C1\SCC(=O)N1c1ccc(C(=O)Nc2ccc3ccccc3c2)cc1` [Compound 38, Methyl (Z)-2-cyano-2-(3-(4-(naphthalen-2-ylcarbamoyl)phenyl)-4-oxothiazolidin-2-ylidene)acetate], the melting point lay within 285 to 286 °C. For the same compound, on hDHODH, the “hDHODH inhibitory activity in words” value was “inactive”, at 10 µM the inhibition was 38.2% and the IC50 is more than 10 µM.
For `COC(=O)/C(C#N)=C1\SCC(=O)N1c1ccc(OCc2ccccc2)cc1` [Compound 24, Methyl (Z)-2-(3-(4-(benzyloxy)phenyl)-4-oxothiazolidin-2-ylidene)-2-cyanoacetate], on hDHODH, at 10 µM the inhibition was 55.4% and 4.32 µM corresponded to half-maximal inhibition (IC50).
As for `COC(=O)/C(C#N)=C1\SCC(=O)N1c1ccc(C(=O)NCc2cccc(C(=O)O)c2)cc1` [Compound 43, (Z)-3-((4-(2-(1-cyano-2-methoxy-2-oxoethylidene)-4-oxothiazolidin-3-yl)benzamido)methyl) benzoic acid], the melting point was in the range of 205.7 to 206.6 °C. Moreover, at hDHODH, testing at 10 µM gave an inhibition of 44% and the IC50 was more than 10 µM.
At hDHODH, `COC(=O)/C(C#N)=C1\SCC(=O)N1c1ccc(OCc2ccccc2C(=O)O)cc1` [Compound 25, (Z)-2-((4-(2-(1-Cyano-2-methoxy-2-oxoethylidene)-4-oxothiazolidin-3-yl)phenoxy)methyl)benzoic acid] gave an inhibition at 10 µM of 29.9% and an IC50 of more than 10 µM.
For the compound `COC(=O)/C(C#N)=C1\SCC(=O)N1c1ccc(C(=O)Nc2ccc3c(C(C)=O)cccc3c2)cc1` [Compound 45, Methyl (Z)-2-(3-(4-((5-acetylnaphthalen-2-yl)carbamoyl)phenyl)-4-oxothiazolidin-2-ylidene)-2-cyanoacetate], the melting point lay in the range of 275 to 275.8 °C. Moreover, on hDHODH, the inhibition at 10 µM stood at 42.2% and the IC50 is more than 10 µM.
On to `COC(=O)/C(C#N)=C1\SCC(=O)N1c1ccc(-c2cccc([N+](=O)[O-])c2)cc1F` [Compound 17, Methyl (Z)-2-cyano-2-(3-(3-fluoro-3’-nitro-[1,1’-biphenyl]-4-yl)-4-oxothiazolidin-2-ylidene) acetate], for which the melting point is 179.2 to 179.9 °C. Also, on hDHODH, testing at 10 µM gave an inhibition of 50.7% and the IC50 was 4.35 µM.
In turn, `COC(=O)/C(C#N)=C1\SCC(=O)N1c1ccc(C(=O)Nc2ccc(Br)cc2)cc1` [Compound 33, Methyl (Z)-2-(3-(4-((4-bromophenyl)carbamoyl)phenyl)-4-oxothiazolidin-2-ylidene)-2-cyanoacetate] had a melting point of 306.2 to 307.1 °C. Besides, at hDHODH, the inhibition at 10 µM is 42% and the IC50 is more than 10 µM.
Turning to `COC(=O)/C(C#N)=C1\SCC(=O)N1c1ccc(-c2ccccc2C)cc1F` [Compound 12, Methyl (Z)-2-cyano-2-(3-(3-fluoro-2’-methyl-[1,1’-biphenyl]-4-yl)-4-oxothiazolidin-2-ylidene)acetate], on hDHODH, the inhibition at 10 µM is 57.6% and the IC50 was 6.04 µM.
In turn, `COC(=O)/C(C#N)=C1\SCC(=O)N1c1ccc(C(=O)Nc2ccc(OC)cc2)cc1` [Compound 36, Methyl (Z)-2-cyano-2-(3-(4-((4-methoxyphenyl)carbamoyl)phenyl)-4-oxothiazolidin-2-ylidene)acetate] showed a melting point of 268.9 to 269.7 °C. On hDHODH, this compound returned an inhibition at 10 µM of 55.4% and an IC50 of 5.01 µM.
With `COC(=O)/C(C#N)=C1\SCC(=O)N1c1ccc(C(=O)NCc2ccccc2)cc1` [Compound 39, Methyl (Z)-2-(3-(4-(benzylcarbamoyl)phenyl)-4-oxothiazolidin-2-ylidene)-2-cyanoacetate], the melting point was in the range of 117.3 to 118.1 °C. At hDHODH, the “hDHODH inhibitory activity in words” value was “inactive”, 10 µM produced 39.9% inhibition and the IC50 is more than 10 µM.
Take `COC(=O)/C(C#N)=C1\SCC(=O)N1c1ccc(C(=O)Nc2ccc(I)cc2)cc1` [Compound 34, Methyl (Z)-2-cyano-2-(3-(4-((4-iodophenyl)carbamoyl)phenyl)-4-oxothiazolidin-2-ylidene)acetate]: the melting point was 315.8 to 316.6 °C. Further, on hDHODH, the inhibition at 10 µM came out at 38.1% and the IC50 was more than 10 µM.
Consider `COC(=O)/C(C#N)=C1\SCC(=O)N1c1ccc(-c2ccccc2OC)cc1F` [Compound 13, Methyl (Z)-2-cyano-2-(3-(3-fluoro-2’-methoxy-[1,1’-biphenyl]-4-yl)-4-oxothiazolidin-2-ylidene)acetate], for which, at hDHODH, the inhibition at 10 µM came out at 54.7% and the IC50 stood at 6.64 µM.
On to `COC(=O)/C(C#N)=C1\SCC(=O)N1c1ccc(C(=O)Nc2ccc(C(C)(C)C)c(C(=O)O)c2)cc1` [Compound 44, (Z)-2-(tert-butyl)-5-(4-(2-(1-cyano-2-methoxy-2-oxoethylidene)-4-oxothiazolidin-3-yl)benzamido)benzoic acid], for which the melting point fell in the range of 328.1 to 328.9 °C. Also, at hDHODH, 10 µM produced 30.3% inhibition and the IC50 was more than 10 µM.
On the same counts, the results for `COC(=O)/C(C#N)=C1\SCC(=O)N1c1ccc(C(=O)Nc2ccc(F)cc2)cc1` [Compound 30, Methyl (Z)-2-cyano-2-(3-(4-((4-fluorophenyl)carbamoyl)phenyl)-4-oxothiazolidin-2-ylidene)acetate] are 231.7 to 232.5 °C, 71.3% and 3.01 µM.
`COC(=O)/C(C#N)=C1\SCC(=O)N1c1ccc(Oc2ccccc2OC)cc1` [Compound 20, Methyl (Z)-2-cyano-2-(3-(4-(2-methoxyphenoxy)phenyl)-4-oxothiazolidin-2-ylidene)acetate] showed a melting point of 181.2 to 182.1 °C. In addition, at hDHODH, the inhibition at 10 µM turned out to be 44.7% and the IC50 is more than 10 µM.
On hDHODH, `COC(=O)/C(C#N)=C1\SCC(=O)N1c1ccc(Oc2ccccc2)cc1` [Compound 19, Methyl (Z)-2-cyano-2-(4-oxo-3-(4-phenoxyphenyl)thiazolidin-2-ylidene)acetate] registered an inhibition at 10 µM of 52% and a 50% inhibitory concentration (IC50) of 9.43 µM.
On the same counts, the results for `COC(=O)/C(C#N)=C1\SCC(=O)N1c1ccc2ccccc2c1` [Compound 8] are 80.3% and 1.12 µM.
For `COC(=O)/C(C#N)=C1\SCC(=O)N1c1ccc(-c2cccc(C(F)(F)F)c2)cc1F` [Compound 18, Methyl (Z)-2-cyano-2-(3-(3-fluoro-3’-(trifluoromethyl)-[1,1’-biphenyl]-4-yl)-4-oxothiazolidin-2-ylidene) -acetate], in that order: 53.1% and 9.29 µM.
On the same counts, the results for `COC(=O)/C(C#N)=C1\SCC(=O)N1c1ccc(C(C)(C)C)cc1` [Compound 7] are 79.1% and 1.75 µM.
On hDHODH, `COC(=O)/C(C#N)=C1\SCC(=O)N1c1ccc(-c2cccc(OC)c2)cc1F` [Compound 14, Methyl (Z)-2-cyano-2-(3-(3-fluoro-3’-methoxy-[1,1’-biphenyl]-4-yl)-4-oxothiazolidin-2-ylidene)acetate] returned an inhibition at 10 µM of 63.3% and a concentration for half-maximal inhibition (IC50) of 5.42 µM.
For `COC(=O)/C(C#N)=C1\SCC(=O)N1c1c(F)cc(-c2ccccc2)cc1F` [Compound 11, Methyl (Z)-2-cyano-2-(3-(3,5-difluoro-[1,1’-biphenyl]-4-yl)-4-oxothiazolidin-2-ylidene)acetate], in that order: 33.9% and more than 10 µM.
For `COC(=O)/C(C#N)=C1\SCC(=O)N1c1ccc(C(=O)NC2CCCCC2)cc1` [Compound 27, Methyl (Z)-2-cyano-2-(3-(4-(cyclohexylcarbamoyl)phenyl)-4-oxothiazolidin-2-ylidene)acetate], in that order: 41.7% and more than 10 µM.

Usually inhibition stands for the relative decrease from the control value, in per cent. High values mean a strong effect, low ones a weak effect. One may read the IC50 as the concentration that inhibits the measured activity by half. Read a high IC50 as a need for much substance. By melting point is commonly meant the temperature, or range, at which the solid turns liquid.
